Results on 16 compounds are retold here after patent publication US20210220340A1, “COMPOSITION FOR PREVENTION OR TREATMENT OF NEURODEGENERATIVE DISEASE” (THE ASAN FOUNDATION, priority 2018, published 2021).

Where a name gives a salt, the structure may show the parent alone. Read-outs that look alike come from different tables or passages of the source.

The subject of experiment [1] is all PDE isoforms. Nature of the experiment: HTS using all PDE isoforms as targets. Type of experiment: biochemical. Conditions: for inhibitory efficacy in all PDE isoforms: Example 18 screening, compared with cilostazol; for IC50: across PDE isoforms, FIG. 31. As to the method:
Compounds included in the library of 800 FDA-approved drugs were diluted 1/4 from a concentration of 100 μM and dispensed into each well in 96-well plates, and mixed with a PDE reactant to allow a PDE reaction with the drug for 1 hour at a constant temperature.
The experiment was carried out in the same manner as used in screening of the FDA-approved drug library. […] Each of the screening library drugs were diluted 1/4 from 100 μM and dispensed into each well in 96-well plates, and mixed with a PDE reactant, followed by allowing a reaction between the drug and PDE for 1 hour for storage. After a stop solution was mixed with a AMP detection agent, the mixture was dispensed at 20 μl per well to allow a reaction for 10 minutes, followed by immediately measuring luminescence, and the experiment was performed according to a protocol provided by the kit used herein.
The first selection started with PDE3 as a target, and after candidate drugs were selected, all PDE isoforms were tested.

Experiment [2] concerns mouse pericytes. Nature of the experiment: Amyloid beta aggregation in pericytes treated with cilostazol (confocal microscopy, western blotting). The class given is cell-based. The note with it: 1 hour (confocal) and 24 hours (western blot). The method, then: Each type of cell was cultured under the culture conditions, a cell culture was restored, followed by preparing a particulate fraction in a 50 mM Tris buffer. Proteins obtained from the cell culture developed in a SDS polyacrylamide gel, transferred to an immobilon-P membrane (Millipore, USA), and reacted with antibodies overnight. Next day, western blots were washed, reacted with peroxidase-linked secondary antibodies at room temperature for 1 hour, followed by staining bands with 4-chloro-1-naphthol. From the result of Example 1, PDE3, which is specifically highly expressed in pericytes, is selected as a target material. It was observed how the treatment of cilostazol known as a specific inhibitor of PDE3 affects amyloid beta accumulation. FIG. 5 is a set of confocal microscope images of mouse pericytes which are cultured and then treated with CTL (control), amyloid beta (Aβ) and cilostazol (amyloid beta+cilostazol; +cilo) for 1 hour, respectively. The graph on the right side of FIG. 5 is obtained by observing pericytes treated with CTL (control), amyloid beta (Aβ) and cilostazol (amyloid beta+cilostazol; +cilo) for 1 hour, and measuring the fluorescence intensities thereof. […] The graph on the right side of FIG. 6 is obtained by measuring an oligomer/actin expression level and a monomer/actin expression level in each group.
A general note: A western blot detects proteins with antibodies after separation by electrophoresis.

In experiment [3] the test system is mouse astrocytes. Nature of the experiment: Lysosome pH change in astrocytes (LysoSensor Green DND-189, acridine orange). The class given is cell-based. The note with it: amyloid beta-accumulated. As to the method: For astrocyte culture, first, cerebral cortices (neocortices) were dissociated from murine fetuses (3 weeks old), and the obtained cortical tissue was divided into single cells. Subsequently, the single cells were seeded, and the cultured astrocytes were stored using a culture medium (DMEM 7% FBS+7% HS+100 U/mL penicillin+100 μg/mL […]) in a humidified incubator at 37[…] under a condition of 5% carbon dioxide. After DIV 10-14, cells grown to 80-90% or more confluence were used, and before an experiment, the cells were washed twice with warm MEM and used. New cells were cultured and used each time without passaging.
FIG. 8A is a set of images that visualize pH changes for 0 to 1 hour in respective groups of mouse astrocytes, which are stained with LysoSensor Green DND-189, and then treated with either amyloid beta (Aβ) or amyloid beta and cilostazol (Aβ+cilo).

The subject of experiment [4] is mouse pericytes. Put plainly: Lysosome pH in bafilomycin A1-treated pericytes (LysoSensor, confocal microscope). Type of experiment: cell-based. Conditions: mouse pericytes treated with bafilomycin A1 alone. The text has this: A system that can visualize changes in intracellular lysosome pH with LysoSensor, which is a pH-sensitive lysosomal dye, in mouse pericytes using a confocal microscope was established (refer to Example 6) to observe whether amlexanox (AMX) is involved in the pH change of lysosomes in cells.
FIG. 19 is a set of time-dependent confocal microscope images (left) of mouse pericytes when being treated with Bafilomycin A1, which is a vATPase inhibitor, and then stained with LysoSensor, and quantified data (right) thereof.
Here, the images on the left side of FIG. 19 are obtained by treating mouse pericytes with bafilomycin A1, which is a vATPase inhibitor, and analyzing the cells using LysoSensor over time by a confocal microscope (top), and by treating the bafilomycin A1-treated mouse pericytes with the finally selected amlexanox (AMX) and analyzing the cells using LysoSensor over time by a confocal microscope (bottom).

The subject of experiment [5] is cathepsin B. Put plainly: Lysosomal function activity in astrocytes: degree of hydrolysis of cathepsin B. The class given is cell-based, mouse. Conditions: mouse astrocytes treated with bafilomycin A1 alone. The method, then: (§1) Samples stained with enzymatic dyes such as cathepsin B and cathepsin L were administered into the cell culture to allow a reaction for 30 minutes, and changes in activity of lysosomes in cells were confirmed using a confocal microscope.
(§2) Astrocytes were stained with a fluorescence-tagged lysosomal protein, and the degrees of hydrolysis of cathepsin B and cathepsin L, which are lysosomal proteins, were analyzed.
(§3) FIG. 21 is a set of time-dependent confocal microscope images of mouse astrocytes, which are treated with bafilomycin A1, which is a vATPase inhibitor, to assess the degree of hydrolysis of cathepsin B (top) and cathepsin L (bottom).

Experiment [6] concerns cathepsin L. Nature of the experiment: Lysosomal function activity in astrocytes: degree of hydrolysis of cathepsin L. Type of experiment: cell-based, mouse. The note with it: mouse astrocytes treated with bafilomycin A1 alone. As to the method:
as §1, §2, §3

As to `O=C(O)c1cccc(-c2noc(-c3ccccc3F)n2)c1` [ataluren], in experiment [1], the “inhibitory efficacy in all PDE isoforms” value is recorded as “high inhibitory efficacy”.
On the same count and under the same terms, to `CCc1ccc(OCc2ccccc2C(=O)Nc2ccc3nc(C)cc(N)c3c2)cc1.Cl` [JTC-801] belongs “high inhibitory efficacy”; to `Cc1ccc(NC(=O)c2ccc(CN3CCN(C)CC3)cc2)cc1Nc1nccc(-c2cccnc2)n1` [imatinib mesylate], “high inhibitory efficacy”.
Take `Cc1nc(-c2ccc(OCC(C)C)c(C#N)c2)sc1C(=O)O` [febuxostat]: the “inhibitory efficacy in all PDE isoforms” value in experiment [1] is “high inhibitory efficacy”.
On the same count and under the same terms, to `COC1=CC(c2cc3ccccc3[nH]2)=N/C1=C\c1[nH]c(C)cc1C` [obatoclax mesylate] belongs “high inhibitory efficacy”; to zafirlukast, “high inhibitory efficacy”; to `OCc1ccc(-c2ccc(-c3ccc(CO)s3)o2)s1` [RITA, 5,5′-(2,5-furandiyl)bis-2-thiophenemethanol], “high inhibitory efficacy”.
For `O=C1CCc2cc(OCCCCc3nnnn3C3CCCCC3)ccc2N1` [cilostazol], the “amount of aggregated amyloid beta” value in experiment [2] is listed as “significantly reduced”. In experiment [3], the lysosomal function result is recorded as “normalized” and the pH of lysosomes entry is recorded as “acidified”.
Take `Cc1ccc(NC(=O)c2ccc(CN3CCN(C)CC3)cc2)cc1Nc1nc(-c2cccnc2)cs1` [masitinib]: in experiment [1], the “inhibitory efficacy in all PDE isoforms” value is reported as “high inhibitory efficacy”.
Same read-out and setting: for `Oc1ccc(/C=C/c2cc(O)cc(O)c2)cc1` [resveratrol] the value was “high inhibitory efficacy”.
As for `CO/C1=C\C(C)=C\[C@@H](C)[C@@H](O)[C@@H](C)C/C(C)=C/C=C/[C@H](OC)[C@@H]([C@@H](C)[C@@H](O)[C@H](C)[C@@]2(O)C[C@@H](O)[C@H](C)[C@@H](C(C)C)O2)OC1=O` [bafilomycin A1], in experiment [4], the “lysosomal pH” value was “increased”. Also, the “cathepsin B (lysosomal protein activity)” value in experiment [5] was “decreased”. Besides, in experiment [6], the “cathepsin L (lysosomal protein activity)” value is on record as “decreased”.
For the compound `Oc1cc(O)cc(/C=C/c2ccc(O)c(O)c2)c1` [piceathanol], the “inhibitory efficacy in all PDE isoforms” value in experiment [1] was “high inhibitory efficacy”. Moreover, the IC50 is not below 0.3 nM in experiment [1] (read-out: inhibition value of each isoform, lowest) and not above 5500 nM in experiment [1] (read-out: inhibition value of each isoform, maximum).
Take `CN1CCN(c2ccc3nc(-c4c(N)c5c(F)cccc5[nH]c4=O)[nH]c3c2)CC1` [dovitinib]: the “inhibitory efficacy in all PDE isoforms” value in experiment [1] is “high inhibitory efficacy”.
For the compound `Cc1nc(N)sc1-c1ccnc(Nc2ccc(N3CCOCC3)cc2)n1` [CYC116], the “inhibitory efficacy in all PDE isoforms” value in experiment [1] is “high inhibitory efficacy”.
Consider pifithrin, for which the “inhibitory efficacy in all PDE isoforms” value in experiment [1] is reported as “high inhibitory efficacy”.
The same measure, in the same setting: to `Oc1c(Cl)cc(Cl)c(Cl)c1Cc1c(O)c(Cl)cc(Cl)c1Cl` [hexachloropene] belongs “high inhibitory efficacy”.
